For data set [1] the following is noted: rcm bond.
The conditions of data set [2]: from C=Cc1ccc2ccc([C@@H](C)OC(=O)[C@@H]3CCCN(C(=O)[C@H](C)NC(=O)[C@@H](NC(=O)[C@@H](/C=C/C)CC4CC4)C(C)C)N3)nc2c1; rcm bond; 21-membered ring; Hoveyda-Grubbs II (3x20 mol%); 1,2-dichloroethane; 2.44 mM; 80.0 °C.
Data set [3] addresses cyclophilin A (Homo sapiens, UniProt P62937). Nature of the data set: Cyclophilin A TR-FRET competitive binding assay. As to conditions: IC50 ranges; competition with CsA-Cy5 for His-tagged CypA, two-hour incubation; read-out: TR-FRET. As for the experimental part: Cyclophilin A TR-FRET Competitive Binding Assay
Inhibitor potency was measured using a competitive binding assay with a time-resolved fluorescence resonance energy transfer (TR-FRET) readout. […] An IC50 value was calculated using a four-parameter logistic fit.
(In general: In TR-FRET formats the signal depends on donor and acceptor labels being close together.)

The test system of data set [4] is HCV replicon (Replicon 1a). Nature of the data set: anti-HCV activity in Huh-7 cell line harboring a HCV replicon (Replicon 1a). The format is cell-based. As to conditions: Hepatitis C virus, Huh-7, 72 h, read-out: Replicon 1a % inhibition at 1 μM, 1 μM; human hepatoma Huh-7 HCV replicon cells, 3 days, luciferase readout. Background: In antiviral work, replicon cells carry a viral genome segment that copies itself.

As a reminder, the inhibition is how much of the control response was suppressed.

Where two headings read alike, the source gives them in different places.

cyclophilin A, sequence (P62937 whole entry, species assumed): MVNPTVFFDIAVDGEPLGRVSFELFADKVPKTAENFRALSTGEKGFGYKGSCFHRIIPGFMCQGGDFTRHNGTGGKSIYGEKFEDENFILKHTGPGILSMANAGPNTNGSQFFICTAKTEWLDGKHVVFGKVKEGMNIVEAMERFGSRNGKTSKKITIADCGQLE

In data set [1] (from C=Cc1cc2cc([C@@H](C)NC(=O)[C@@H]3CCCN(C(=O)[C@H](C)NC(=O)[C@@H](NC(=O)/C=C/C)C(C)C)N3)ccc2cn1, 20-membered ring, Hoveyda-Grubbs II (2 x 10 mol%), toluene, 3.86 mM), `CC(C)[C@@H]1NC(=O)C=Cc2cc3cc(ccc3cn2)[C@@H](C)NC(=O)[C@@H]2CCCN(N2)C(=O)[C@H](C)NC1=O` gave a ring closure, isolated yield of 1.2%.
For the molecule `CC(C)[C@@H]1NC(=O)CC=Cc2cc3cc(ccc3cn2)[C@@H](C)NC(=O)[C@@H]2CCCN(N2)C(=O)[C@H](C)NC1=O`, the ring closure, isolated yield in data set [1] (from C=CCC(=O)N[C@H](C(=O)N[C@@H](C)C(=O)N1CCC[C@@H](C(=O)N[C@H](C)c2ccc3cnc(C=C)cc3c2)N1)C(C)C, 21-membered ring, Hoveyda-Grubbs II (2 x 10 mol%), toluene, 3.86 mM) was 1%.
Take `CC(C)[C@@H]1NC(=O)[C@H](CC2CC2)C=Cc2ccc3ccc(nc3c2)[C@@H](C)OC(=O)[C@@H]2CCCN(N2)C(=O)[C@H](C)NC1=O`: the ring closure, yield after HPLC in data set [2] worked out at 1.3%.
As for “(E)-pent-3-enoyl-hPhe-Ala-Piz-O-(R)-1-(3-vinyl-isoquinolin-6-yl)ethyl ester?”, the ring closure, isolated yield in data set [1] (the molecule shown is the open-chain precursor, 21-membered ring, Hoveyda-Grubbs II (portions), chlorobenzene, 4.8 mM, 110.0 °C) was found to be 12%.
As to `CC(C)[C@@H]1NC(=O)[C@H](C)CCCCOc2ccc(F)c(c2)[C@@H](C)OC(=O)[C@@H]2CCCN(N2)C(=O)[C@H](C)NC1=O` [Compound 36], the IC50 in data set [3] was less than 0.1 µM. Further, in data set [4], the inhibition at 1 µM came out at 73%.
Turning to `CC(C)[C@@H]1NC(=O)C(C)(C(C)O)/C=C/c2ccc3ccc(nc3c2)[C@@H](C)OC(=O)[C@@H]2CCCN(N2)C(=O)[C@H](C)NC1=O` (stereo partly drawn) [Compound 89], the IC50 in data set [3] was less than 0.1 µM. The inhibition at 1 µM in data set [4] stood at 99%.
As for `CC(C)[C@@H]1NC(=O)C2(/C=C/c3ccc4ccc(nc4c3)[C@@H](C)NC(=O)[C@@H]3CCCN(N3)C(=O)[C@H](C)NC1=O)CCC(F)(F)CC2` [Compound 122], the IC50 in data set [3] was less than 0.1 µM. Further, in data set [4], the inhibition at 1 µM was found to be 96%.
In the same order, the values of `CC(C)[C@@H]1NC(=O)C2(/C=C/c3ccc4ccc(nc4c3)[C@@H](C)OC(=O)[C@@H]3CCCN(N3)C(=O)[C@H](C)NC1=O)CCOC(C)(C)C2` (stereo partly drawn) [Compound 123] are less than 0.1 µM and 100%.
Regarding `CC(C)[C@@H]1NC(=O)C(C)(C)/C=C/c2ccc3ccc(nc3c2)[C@@H](C)OC(=O)[C@@H]2CCCN(N2)C(=O)[C@H](Cc2cn(C(c3ccccc3)(c3ccccc3)c3ccccc3)cn2)NC1=O` [Compound 94], the IC50 in data set [3] is less than 0.1 µM. Moreover, the inhibition at 1 µM in data set [4] was determined as 96%.
Consider `CO[C@@H]1CCc2cc3cc(ccc3cn2)[C@@H](C)NC(=O)[C@@H]2CCCN(N2)C(=O)[C@H](C)NC(=O)[C@H](C(C)C)NC(=O)[C@@H]1C` [Compound 6], for which the IC50 in data set [3] was less than 0.1 µM. Besides, in data set [4], the inhibition at 1 µM turned out to be 86%.
With `CC(=O)O[C@@H](C)[C@H]1/C=C/c2ccc3ccc(nc3c2)[C@@H](C)OC(=O)[C@@H]2CCCN(N2)C(=O)[C@H](C)NC(=O)[C@H](C(C)C)NC1=O` [Compound 171], the IC50 in data set [3] is less than 0.1 µM. Besides, the inhibition at 1 µM in data set [4] was found to be 99%.
In the same order, the values of `Cc1cc2ccc3cc2nc1[C@@H](C)NC(=O)[C@@H]1CCCN(N1)C(=O)[C@H](C)NC(=O)[C@H](C(C)C)NC(=O)C(C)(C)/C=C/3` [Compound 175] are less than 0.1 µM and 85%.
In the case of `C[C@@H]1NC(=O)[C@H](Cc2ccccc2)NC(=O)C/C=C/c2cc3cc(ccc3cn2)[C@@H](C)OC(=O)[C@@H]2CCCN(N2)C1=O` [Compound 54], the IC50 in data set [3] is less than 0.1 µM. For the same molecule, in data set [4], the inhibition at 1 µM stood at 98%.
Turning to `CC(C)[C@@H]1NC(=O)C(C)(C)/C=C/c2ccc3ccc(nc3c2)[C@@H](C)OC(=O)[C@@H]2CCCN(N2)C(=O)[C@H](Cc2c[nH]cn2)NC1=O` [Compound 95], the IC50 in data set [3] is less than 0.1 µM. Also, in data set [4], the inhibition at 1 µM was determined as 68%.
In the case of `CC(C)[C@@H]1NC(=O)[C@]2(/C=C/c3ccc4ccc(nc4c3)[C@@H](C)OC(=O)[C@@H]3CCCN(N3)C(=O)[C@H](C)NC1=O)CC[C@](C)(O)CC2` [Compound 174], in data set [3], the IC50 was less than 0.1 µM. Besides, the inhibition at 1 µM in data set [4] turned out to be 99%.
In the same order, the values of `CO[C@@H]1/C=C/c2cc3cc(ccc3cn2)[C@@H](C)NC(=O)[C@@H]2CCCN(N2)C(=O)[C@H](C)NC(=O)[C@H](C(C)C)NC(=O)[C@@H]1C` [Compound 5] are less than 0.1 µM and 80%.
The matching figures for `CC(C)[C@@H]1NC(=O)[C@]2(/C=C/c3ccc4ccc(nc4c3)[C@@H](C)OC(=O)[C@@H]3CCCN(N3)C(=O)[C@H](C)NC1=O)CC[C@@](C)(O)CC2` [Compound 173]: less than 0.1 µM and 99%.
Take `CC(C)[C@@H]1NC(=O)C/C=C/c2ccc3ncc(nc3c2)[C@@H](C)OC(=O)[C@@H]2CCCN(N2)C(=O)[C@H](C)NC1=O` [Compound 7]: the IC50 in data set [3] is less than 0.1 µM. Moreover, the inhibition at 1 µM in data set [4] stood at 94%.
The matching figures for `CO[C@@H]1CC/C=C/c2cccc(c2)C2CCCCN2C(=O)[C@@H]2CCCN(N2)C(=O)[C@H](C)NC(=O)[C@H](C(C)C)NC(=O)[C@@H]1C` (stereo partly drawn) [Compound 28]: 0.101 to 1 µM and 56%.
In the same order, the values of `C[C@@H]1NC(=O)[C@H]([C@@H](C)O)NC(=O)C/C=C/c2cc3cc(ccc3cn2)[C@@H](C)OC(=O)[C@@H]2CCCN(N2)C1=O` [Compound 48] are less than 0.1 µM and 40%.

Values taken from patent US9512175B2, “Macrocyclic inhibitors of flaviviridae viruses” (Gilead Sciences, Inc., priority 2012, dated 2016).
